# Values quoted from earlier work, collected in article PMC11768433 (Viruses, 2024).
# Read-outs that look alike come from different tables or passages of the source.
# Experiments:
# Dengue virus 2(DENV2) = system: Dengue virus 2(DENV2); design: method as in Ref.35663971; conditions: DENV2, Huh7 cells, at 10 μM; ref Ref.35663971
# Vero E6 cells = system: Vero E6 cells; design: method as in Ref.35663971; conditions: ref Ref.35663971
# HSV = system: HSV; design: method as in Ref.35663971; conditions: Huh7 cells, at 10 μM, ref Ref.35663971
# SARS-CoV-2 [1] = system: SARS-CoV-2; design: method as in Ref.35663971; conditions: SARS-CoV-2, Huh7 cells, at 10 μM; ref Ref.35663971
# P4-CCR5 cells = system: P4-CCR5 cells; design: method as in Ref.15780876; conditions: ref Ref.15780876
# HCoV-229E = system: HCoV-229E; design: method as in Ref.35216177; conditions: HCoV-229E replication, Vero cells; ref Ref.35216177
# HSV-2 = system: HSV-2; design: method as in Ref.35216177; conditions: HSV-2 replication, Vero cells; ref Ref.35216177
# SARS-CoV-2 [2] = system: SARS-CoV-2; design: method as in Ref.35216177; conditions: SARS-CoV-2 replication, Vero cells; ref Ref.35216177
# HPIV-3 = system: HPIV-3; design: method as in Ref.35216177; conditions: HPIV-3 replication, Vero cells; ref Ref.35216177
# HCoV-OC43 = system: HCoV-OC43; design: method as in Ref.35216177; conditions: HCoV-OC43 replication, Vero cells; ref Ref.35216177
# HSV-1 = system: HSV-1; design: method as in Ref.35216177; conditions: HSV-1 replication, Vero cells; ref Ref.35216177
# Vero cells [3] = system: Vero cells; design: method as in Ref.35216177; conditions: ref Ref.35216177
# Vero cells [4] = system: Vero cells; design: method as in Ref.35055066; conditions: ref Ref.35055066
# P4 cells = system: P4 cells; design: method as in Ref.12054767; conditions: MTT assay, peptide concentrations higher than 100 μM, ref Ref.12054767
# HIV-1 = system: HIV-1; design: method as in Ref.12054767; conditions: up to 100 μM; ref Ref.12054767
# MDCK cells = system: MDCK cells; design: method as in Ref.17005658; conditions: up to 50μM, ref Ref.17005658
# Vero cells [5] = system: Vero cells; design: method as in Ref.18572274; conditions: up to 500 μM, ref Ref.18572274
# hepatitis C virus(HCVpp) = system: hepatitis C virus(HCVpp); design: method as in Ref.20156485; conditions: Huh-7 human hepatoma cells, ref Ref.20156485
# Huh-7 cells = system: Huh-7 cells; design: method as in Ref.20156485; conditions: ref Ref.20156485
# [6] = system: Herpes simplex virus type 1(HSV-1); design: method as in Ref.18572274; conditions: HSV-1 entry, Vero cells, at 250μM; ref Ref.18572274
# TZM-bl cells = system: TZM-bl cells; design: method as in Ref.30867304; conditions: ref Ref.30867304
# Human PBMC = system: Human PBMC; design: method as in Ref.30867304; conditions: ref Ref.30867304
# U937 cells = system: U937 cells; design: method as in Ref.30867304; conditions: U937 cells (cell text ends after μ); ref Ref.30867304
# C8166 cells = system: C8166 cells; design: method as in Ref.30867304; conditions: ref Ref.30867304
# MT-4 cells = system: MT-4 cells; design: method as in Ref.30867304; conditions: ref Ref.30867304
# Huh7.5.1 cells = system: Huh7.5.1 cells; design: method as in Ref.22378192; conditions: ref Ref.22378192
substance,measurement,setting,value
"MGRFKRFRKKFKKLFKKLS [DRAVPe01948, DRAVP database peptide bomidin]",inhibition,Dengue virus 2(DENV2),50%
same,CC50,Vero E6 cells,169.6 µM
same,inhibition,HSV,50%
same,inhibition,SARS-CoV-2 [1],80%
"ALWKTLLKKVLKAAAK [DRAVPe01957, DRAVP database peptide, target HIV]",CC50,P4-CCR5 cells,[Ref.15780876]P4-CCR5 cells:CC50>100 μM.
"FVPWFSKFlKRIL [DRAVPe00383, DRAVP database entry, TL peptide]",IC90,HCoV-229E,50 µM
same,IC90,HSV-2,7.99 µM
same,IC90,SARS-CoV-2 [2],12.9 µM
same,IC90,HPIV-3,> 50 µM
same,IC90,HCoV-OC43,16.3 µM
same,IC90,HSV-1,10.5 µM
same,CC50,Vero cells [3],22.32 µM
"AIGSILGALAKGLPTLISWIKNR [DRAVPe00469, DRAVP database peptide AR-23]",CC50,Vero cells [4],25 µM
"QLLIRMI [DRAVPe00092, DRAVP database peptide, target HIV-1 integrase]",decrease of cell viability,P4 cells,~5%
same,inhibition of HIV-1 infection,HIV-1,no inhibition
"FVPWFSKFlkRIL [DRAVPe00384, DRAVP database entry, TL peptide]",IC90,HCoV-229E,50 µM
same,IC90,HSV-2,12.5 µM
same,IC90,SARS-CoV-2 [2],25.3 µM
same,IC90,HPIV-3,> 50 µM
same,IC90,HCoV-OC43,29.2 µM
same,IC90,HSV-1,12.7 µM
same,CC50,Vero cells [3],45.92 µM
RRKKAAVALLPAVLLALLAP [DRAVPe01891],cytotoxicity,MDCK cells,[Ref.17005658]No cytotoxicity against MDCK cells up to 50μM
GLASTLTRWAHYNALIRAF [DRAVPe01424],cytotoxicity,Vero cells [5],[Ref.18572274]No cytotoxicity against Vero cells up to 500 μM.
VSFAIKWEYVLLLFLL [DRAVPe01483],EC90,hepatitis C virus(HCVpp),14 ± 12 µM
same,cytotoxicity,Huh-7 cells,[Ref.20156485]No cytotoxicity against Huh-7 cells.
AAHLIDALYAEFLGGRVLTT [DRAVPe01423],inhibition,[6],60%
same,cytotoxicity,Vero cells [5],[Ref.18572274]No cytotoxicity against Vero cells up to 500 μM.
"ALWMTLLKKVLKAAAKAALNAVLVGANA [DRAVPe01956, DRAVP database peptide, target HIV]",CC50,P4-CCR5 cells,5.6 µM
WEQKIEELLKKAEEQQKKNEEELKKLEKX [DRAVPe00787],CC50,TZM-bl cells,12.34 µM
same,CC50,Human PBMC,40.27 µM
same,CC50,U937 cells,9.97 μ
same,CC50,C8166 cells,19.19 µM
same,CC50,MT-4 cells,19.65 µM
"MANAGLQLLGFILAFLGW [DRAVPe01317, DRAVP database peptide, target HCV]",CC50,Huh7.5.1 cells,~200 Μm
